Consider two molecules from patent US20150010479A1, “TREATMENT OF MICROBIAL INFECTIONS” (SINCLAIR PHARMACEUTICALS LIMITED, priority 2012, published 2015).

The subject of assay [1] is C. albicans. Briefly: MIC/MBC of CPC or delmopinol alone. In kind it is cell-based. The settings on record: Candida albicans, compound alone. As to the method:
(§1) The final mixture was then sterilized by filtration using a […] PES filter (Nalgene, 169-0045).
(§2) Bacterial preparations were prepared using freshly grown cultures on solid media. Several loop-fulls of culture were transferred to 10-20 ml of the appropriate broth and vortexed gently until a fine suspension was produced. The initial OD600 nm of the cell suspensions was measured and adjusted to 0.2 to give a colony count of 1×10^8 cfu/ml. Final inocula were prepared by diluting the adjusted cell suspensions in appropriate broth as detailed below:
(§3) The broths were added to wells in columns 1, 11 (negative control, broth only) and 12 (positive control).
(§4) 100 μl of normal broth (standard assay) or broth A was added to wells in columns 2-10.
(§5) After mixing in column 10, 100 μl was discarded. 5 μl of the appropriate solvent was added to wells in column 12, mixed and 100 μl discarded.
(§6) Finally, 100 μl of inoculum (prepared in either normal broth or 2× broth A) was added to the wells in columns 1-10 and 12 and the plates were incubated as described above.

The subject of the next assay is E. coli. Nature of the assay: MIC/MBC of CPC or delmopinol alone. In kind it is cell-based. As to conditions: Escherichia coli, compound alone. As to the method: as §1, §2, §3, §4, §5, §6
The subject of assay [2] is P. gingivalis. Briefly: MIC/MBC of CPC or delmopinol alone. As to conditions: Porphyromonas gingivalis. In kind it is cell-based. As to the method:
as §1, §2, §3, §4, §5, §6

Assay [3] concerns Prv. nigrescence. Briefly: MIC/MBC of CPC or delmopinol alone. In kind it is cell-based. As to conditions: Prevotella, compound alone. How it is done:
as §1, §2, §3, §4, §5, §6

The test system of another assay is S. aureus. Nature of the assay: MIC/MBC of CPC or delmopinol alone. As to conditions: Staphylococcus aureus. It is filed as cell-based. How it is done:
as §1, §2, §3, §4, §5, §6

The next assay deals with E. faecalis. Nature of the assay: MIC/MBC of CPC or delmopinol alone. In kind it is cell-based, Entercoccus faecalis. As to conditions: Enterococcus faecalis, compound alone. How it is done:
as §1, §2, §3, §4, §5, §6

Assay [4] relates to P. gingivalis. Nature of the assay: CPC and delmopinol combination (chequerboard assay), FICi/FBCi. It is filed as cell-based, Porphyromonas gingivalis. As to conditions: CPC + delmopinol, Standard broth. As to the method: (§7) 190 μl of normal broth (standard assays) or broth A was added to wells of a 96 well plate. […] 5 μl of each dilution of delmopinol was added to the appropriate wells of the 96 wells plate. The contents of each well were mixed thoroughly and then 100 μl volume was discarded.
(§8) Plates were then incubated as described above. […] Following incubation the plates were examined and growth/no growth recorded for every well sample (used for FBC determination).
(§9) FBCi were calculated in the same manner but using MBC data.
(§10) The FICi and FBCi were interpreted using the same parameters as set out above.

The test system of assay [5] is Prv. nigrescence. Described as above. It is filed as cell-based, Prevotella nigrescence. How it is done:
as §7, §8, §9, §10

The test system of assay [6] is C. albicans. The description is as above. In kind it is cell-based, Candida albicans. As to conditions: CPC + delmopinol. As to the method: as §7, §8, §9, §10
[7] abbreviates: Decapinol base (Broth A), no delmopinol or sodium benzoate present, read-out: Activity alone Decapinol base MBC.
Setting [8] is: Decapinol base (Broth A), no delmopinol or sodium benzoate present, read-out: Activity alone Decapinol base MIC.
[9] abbreviates: Standard broth, read-out: Activity alone Standard MBC.
[10] abbreviates: Standard broth, read-out: Activity alone Standard MIC.

For orientation: MIC means the least concentration at which growth counts as inhibited.

Where “and” joins values, the source holds several entries; their conditions need not be identical. Identical values can stand only once. Like-named read-outs stand apart in the source and are kept apart here.

`CCCC(CCC)CCCC1COCCN1CCO` (centres unmarked) [Delmopinol, 3-(4-propylheptyl)-4-(2-hydroxyethyl)morpholine]: the MBC with C. albicans [1] (setting [7]) is 120 µg/mL and 460 µM; with C. albicans [1] (setting [9]) it was 500 µg/mL and 1840 µM; in the assay on E. coli (setting [7]) it was 250 µg/mL and 920 µM; in the assay on E. coli (setting [9]) it was 250 µg/mL and 920 µM; in the assay on P. gingivalis [2] (read-out: Activity alone Decapinol base MBC), 31.2 µg/mL; with P. gingivalis [2] (read-out: Activity alone Standard MBC), 31.2 µg/mL. The MBC in the assay with P. gingivalis [2] (P. gingivalis, compound alone, Decapinol base (Broth A), no delmopinol or sodium benzoate present, read-out: Activity alone Decapinol base MBC) is 120 µM; in the assay on P. gingivalis [2] (P. gingivalis, compound alone, Standard broth, read-out: Activity alone Standard MBC) it was 120 µM; with Prv. nigrescence [3] (setting [7]), 125 µg/mL and 460 µM; in the assay on Prv. nigrescence [3] (setting [9]) it was 62.5 µg/mL and 230 µM; in the assay on S. aureus (S. aureus, compound alone, Decapinol base (Broth A), no delmopinol or sodium benzoate present, read-out: Activity alone Decapinol base MBC) it was 250 µg/mL and 920 µM; in the assay with S. aureus (S. aureus, compound alone, Standard broth, read-out: Activity alone Standard MBC), 250 µg/mL and 920 µM. In addition, the MBC in the assay with E. faecalis (setting [7]) is 250 µg/mL and 920 µM; in the assay with E. faecalis (setting [9]), 250 µg/mL and 920 µM. The MIC in the assay on C. albicans [1] (setting [8]) is 120 µg/mL and 460 µM; with C. albicans [1] (setting [10]) it was 500 µg/mL and 1840 µM; with E. coli (setting [8]), 250 µg/mL and 920 µM; in the assay with E. coli (setting [10]), 250 µg/mL and 920 µM; in the assay with P. gingivalis [2] (read-out: Activity alone Decapinol base MIC), 31.2 µg/mL; in the assay on P. gingivalis [2] (P. gingivalis, compound alone, Decapinol base (Broth A), no delmopinol or sodium benzoate present, read-out: Activity alone Decapinol base MIC), 1.2 µM. Also, the MIC is 1.95 µg/mL in the assay with P. gingivalis [2] (P. gingivalis, compound alone, Standard broth, read-out: Activity alone Standard MIC); 31.2 µg/mL and 120 µM with Prv. nigrescence [3] (setting [8]); 62.5 µg/mL and 230 µM in the assay with Prv. nigrescence [3] (setting [10]); 125 µg/mL with S. aureus (read-out: Activity alone Standard MIC); 250 µg/mL and 920 µM with S. aureus (S. aureus, compound alone, Decapinol base (Broth A), no delmopinol or sodium benzoate present, read-out: Activity alone Decapinol base MIC); 460 µM in the assay with S. aureus (S. aureus, compound alone, Standard broth, read-out: Activity alone Standard MIC). The minimal inhibitory concentration (MIC) was 250 µg/mL and 920 µM in the assay with E. faecalis (setting [8]); 250 µg/mL and 920 µM with E. faecalis (setting [10]).
As to `CCCCCCCCCCCCCCCC[n+]1ccccc1` [CPC, cetylpyridinium chloride], the “Combination with delmopinol (FIC) Standard FICi” value in the assay on P. gingivalis [4] is 0.62p. In addition, in the assay on Prv. nigrescence [5], the “Combination with delmopinol (FIC) Decapinol base FBCi” value is 0.53p, the “Combination with delmopinol (FIC) Decapinol base FICi” value amounted to 0.5 s and the “Combination with delmopinol (FIC) Standard FBCi” value is given as 0.79. Besides, in the assay on C. albicans [6] (Decapinol base (Broth A)), the “Combination with delmopinol (FIC) Decapinol base FBCi” value was 0.65p and the “Combination with delmopinol (FIC) Decapinol base FICi” value is 0.99. The “Combination with delmopinol (FIC) Standard FBCi” value in the assay with C. albicans [6] (Standard broth) turned out to be 0.68p.
